Experimental data: patent US20230212116A1, “SARS-COV-2 MAIN PROTEASE INHIBITORS” (TEXAS A&M UNIVERSITY SYSTEM, priority 2020, published 2023)
Like-named read-outs stand apart in the source and are kept apart here.

Assays:
SARS-CoV-2 [1] = type: cell-based
SARS-CoV-2 [2] = assay: microbe, parasite or virus in culture; type: cell-based
SARS-CoV-2 [3] = type: cell-based; conditions: A549/ACE2 cells; tested 80 nM to 10 μM
SARS-CoV-2 M^Pro [4] = target: T1, SARS-CoV-2 M^Pro (Severe acute respiratory syndrome coronavirus 2, UniProt P0DTD1); type: cell-based
SARS-CoV-2 M^Pro [5] = target: T1, SARS-CoV-2 M^Pro; assay: biochemical; type: biochemical; conditions: read-out: Enzymatic IC50
[6] = Vero E6 cells, tested 80 nM to 10 μM, two repeats
[7] = Severe acute respiratory syndrome coronavirus 2, Vero C1008, Vero E6 cells, plaque reduction, read-out: antiviral EC50

## CC(C)C[C@H](NC(=O)OCc1ccccc1)C(=O)N[C@@H](CC1CCNC1=O)C(O)S(=O)(=O)O (stereo partly drawn) [GC376, (2S)-2-((S)-2-(((benzyloxy)carbonyl)amino)-4-methylpentanamido)-1-hydroxy-3-(2-oxopyrrolidin-3-yl)propane-1-sulfonic acid, reference compound]
SARS-CoV-2 [1]; [6]
  concentration of complete abolition of SARS-CoV-2-induced CPE: 10 µM

## CC(C)C[C@H](NC(=O)[C@@H](NC(=O)OCc1ccccc1)C(C)C)C(=O)N[C@H](C=O)C[C@@H]1CCNC1=O [MPI3, benzyl ((S)-3-methyl-1-(((S)-4-methyl-1-oxo-1-(((S)-1-oxo-3-((S)-2-oxopyrrolidin-3-yl)propan-2-yl)amino)pentan-2-yl)amino)-1-oxobutan-2-yl)carbamate]
SARS-CoV-2 [1]
  concentration of complete abolition of SARS-CoV-2-induced CPE: not able to completely prevent CPE at all tested concentrations

## CC(C)[C@H](NC(=O)OCc1ccccc1)C(=O)N[C@@H](CC1CCCCC1)C(=O)N[C@H](C=O)C[C@@H]1CCNC1=O [MPI5, benzyl ((S)-1-(((S)-3-cyclohexyl-1-oxo-1-(((S)-1-oxo-3-((S)-2-oxopyrrolidin-3-yl)propan-2-yl)amino)propan-2-yl)amino)-3-methyl-1-oxobutan-2-yl)carbamate]
SARS-CoV-2 [2]; [7]
  EC50: 73 nM
SARS-CoV-2 [1]; [6]
  concentration of complete abolition of SARS-CoV-2-induced CPE: 5 µM

## CC(C)C[C@H](NC(=O)[C@@H](NC(=O)OCc1ccccc1)[C@@H](C)OC(C)(C)C)C(=O)N[C@H](C=O)C[C@@H]1CCNC1=O [MPI6, benzyl ((2S,3R)-3-(tert-butoxy)-1-(((S)-4-methyl-1-oxo-1-(((S)-1-oxo-3-((S)-2-oxopyrrolidin-3-yl)propan-2-yl)amino)pentan-2-yl)amino)-1-oxobutan-2-yl)carbamate]
SARS-CoV-2 [2]; Severe acute respiratory syndrome coronavirus 2, Vero C1008, read-out: antiviral EC50, Vero E6 cells, plaque reduction
  EC50: 209 nM

## C[C@@H](OC(C)(C)C)[C@H](NC(=O)OCc1ccccc1)C(=O)N[C@@H](Cc1ccccc1)C(=O)N[C@H](C=O)C[C@@H]1CCNC1=O [MPI7, benzyl ((2S,3R)-3-(tert-butoxy)-1-oxo-1-(((S)-1-oxo-1-(((S)-1-oxo-3-((S)-2-oxopyrrolidin-3-yl)propan-2-yl)amino)-3-phenylpropan-2-yl)amino)butan-2-yl)carbamate]
SARS-CoV-2 [2]; [7]
  EC50: 170 nM
SARS-CoV-2 [1]; [6]
  concentration of complete abolition of SARS-CoV-2-induced CPE: 2.5 to 5 µM
SARS-CoV-2 [3]
  concentration of complete abolition of SARS-CoV-2-induced CPE: not able to completely abolish CPE at all tested conditions

## C[C@@H](OC(C)(C)C)[C@H](NC(=O)OCc1ccccc1)C(=O)N[C@@H](CC1CCCCC1)C(=O)N[C@H](C=O)C[C@@H]1CCNC1=O [MPI8, benzyl ((2S,3R)-3-(tert-butoxy)-1-(((S)-3-cyclohexyl-1-oxo-1-(((S)-1-oxo-3-((S)-2-oxopyrrolidin-3-yl)propan-2-yl)amino)propan-2-yl)amino)-1-oxobutan-2-yl)carbamate]
SARS-CoV-2 M^Pro [4]
  suppression of M^Pro-eGFP toxicity / promotion of cell survival and M^Pro-eGFP expression: effectively suppressed

## O=C[C@H](C[C@@H]1CCNC1=O)NC(=O)[C@H](CC1CCCCC1)NC(=O)c1cc2ccccc2[nH]1 [MPI10, N-((S)-3-cyclohexyl-1-oxo-1-(((S)-1-oxo-3-((S)-2-oxopyrrolidin-3-yl)propan-2-yl)amino)propan-2-yl)-1H-indole-2-carboxamide, reference compound]
SARS-CoV-2 [1]; [6]
  concentration of complete abolition of SARS-CoV-2-induced CPE: 10 µM
SARS-CoV-2 [3]
  concentration of complete abolition of SARS-CoV-2-induced CPE: potency similar to that shown in Vero E6 cells

## C[C@@H](OC(C)(C)C)[C@H](NC(=O)OCc1cccc(F)c1)C(=O)N[C@@H](CC1CCCCC1)C(=O)N[C@H](C=O)C[C@@H]1CCNC1=O [MPI102, 3-fluorobenzyl ((2S,3R)-3-(tert-butoxy)-1-(((S)-3-cyclohexyl-1-oxo-1-(((S)-1-oxo-3-((S)-2-oxopyrrolidin-3-yl)propan-2-yl)amino)propan-2-yl)amino)-1-oxobutan-2-yl)carbamate]
SARS-CoV-2 M^Pro [5]
  IC50: 307 nM

## C[C@@H](OC(C)(C)C)[C@H](NC(=O)OCc1ccc(F)cc1)C(=O)N[C@@H](CC1CCCCC1)C(=O)N[C@H](C=O)C[C@@H]1CCNC1=O [MPI103, 4-fluorobenzyl ((2S,3R)-3-(tert-butoxy)-1-(((S)-3-cyclohexyl-1-oxo-1-(((S)-1-oxo-3-((S)-2-oxopyrrolidin-3-yl)propan-2-yl)amino)propan-2-yl)amino)-1-oxobutan-2-yl)carbamate]
SARS-CoV-2 M^Pro [5]
  IC50: 196 ± 31 nM
